# In publication PMC2649376 (Molecular membrane biology, 2006):
# Numbering of substitutions follows the chain as printed.
# What was measured:
# [1] = target: F130N mutant 5-HT3 receptor; conditions: F130N mutant receptor activated with acetylcholine; ref Steward et al. 2000; cited from earlier work
# [2] = target: T1, N128E mutant 5-HT3 receptor (Mus musculus, UniProt P23979, N128E); experiment: FlexStation membrane potential dye functional assay; assay type: cell-based
# T1 sequence (P23979 24-483 isoform P23979-2 N128E limits assumed): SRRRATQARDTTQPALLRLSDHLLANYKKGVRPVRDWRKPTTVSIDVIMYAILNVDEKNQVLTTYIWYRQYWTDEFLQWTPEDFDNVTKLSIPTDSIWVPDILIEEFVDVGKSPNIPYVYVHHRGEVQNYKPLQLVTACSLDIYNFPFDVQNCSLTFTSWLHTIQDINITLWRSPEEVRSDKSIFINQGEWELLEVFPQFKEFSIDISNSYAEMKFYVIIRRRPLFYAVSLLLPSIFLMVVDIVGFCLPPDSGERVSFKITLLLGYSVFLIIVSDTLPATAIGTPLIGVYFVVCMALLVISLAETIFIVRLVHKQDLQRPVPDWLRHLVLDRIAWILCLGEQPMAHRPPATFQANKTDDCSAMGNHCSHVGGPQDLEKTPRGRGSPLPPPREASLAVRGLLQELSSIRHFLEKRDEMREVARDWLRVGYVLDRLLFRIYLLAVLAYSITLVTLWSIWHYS
# [3] = target: T2, N128V mutant 5-HT3 receptor (Mus musculus, UniProt P23979, N128V); experiment: as above; assay type: cell-based
# T2 sequence (P23979 24-483 isoform P23979-2 N128V limits assumed): T1 sequence (P23979 24-483 isoform P23979-2 N128E limits assumed) with E105V
# [4] = target: T3, F130A mutant 5-HT3 receptor (Mus musculus, UniProt P23979, F130A); experiment: as above; assay type: cell-based
# T3 sequence (P23979 24-483 isoform P23979-2 F130A limits assumed): T1 sequence (P23979 24-483 isoform P23979-2 N128E limits assumed) with E105N, F107A
# [5] = target: T4, F130W mutant 5-HT3 receptor (Mus musculus, UniProt P23979, F130W); experiment: as above; assay type: cell-based
# T4 sequence (P23979 24-483 isoform P23979-2 F130W limits assumed): T1 sequence (P23979 24-483 isoform P23979-2 N128E limits assumed) with E105N, F107W
# [6] = target: T5, F130Y mutant 5-HT3 receptor (Mus musculus, UniProt P23979, F130Y); experiment: as above; assay type: cell-based; conditions: HEK 293 cells
# T5 sequence (P23979 24-483 isoform P23979-2 F130Y limits assumed): T1 sequence (P23979 24-483 isoform P23979-2 N128E limits assumed) with E105N, F107Y
# [7] = target: T6, N128D mutant 5-HT3 receptor (Mus musculus, UniProt P23979, N128D); conditions: HEK 293 cells
# T6 sequence (P23979 24-483 isoform P23979-2 N128D limits assumed): T1 sequence (P23979 24-483 isoform P23979-2 N128E limits assumed) with E105D
# [8] = target: T7, N128L mutant 5-HT3 receptor (Mus musculus, UniProt P23979, N128L); conditions: HEK 293 cells
# T7 sequence (P23979 24-483 isoform P23979-2 N128L limits assumed): T1 sequence (P23979 24-483 isoform P23979-2 N128E limits assumed) with E105L
# [9] = target: T8, N128Q mutant 5-HT3 receptor (Mus musculus, UniProt P23979, N128Q); conditions: HEK 293 cells
# T8 sequence (P23979 24-483 isoform P23979-2 N128Q limits assumed): T1 sequence (P23979 24-483 isoform P23979-2 N128E limits assumed) with E105Q
# [10] = target: T9, N128R mutant 5-HT3 receptor (Mus musculus, UniProt P23979, N128R)
# T9 sequence (P23979 24-483 isoform P23979-2 N128R limits assumed): T1 sequence (P23979 24-483 isoform P23979-2 N128E limits assumed) with E105R
# [11] = target: T5, F130Y mutant 5-HT3 receptor; conditions: whole cell electrophysiology, ref Steward et al. 2000; cited from earlier work
Structure (SMILES),EC50 [1] [µM],change in EC50 versus wild type [2],Hill Coefficient ([2]; HEK 293 cells),change in EC50 versus wild type [3],Hill Coefficient ([3]; HEK 293 cells),change in EC50 versus wild type [4],Hill Coefficient ([4]; HEK 293 cells),change in EC50 versus wild type [5],Hill Coefficient ([5]; HEK 293 cells),Hill Coefficient [6],Hill Coefficient [7],Hill Coefficient [8],Hill Coefficient [9],factor of increase in EC50 versus wild type [10],increase in EC50 versus wild type reported previously [11] [fold]
CC(=O)OCC[N+](C)(C)C [acetylcholine],256,,,,,,,,,,,,,,
"NCCc1c[nH]c2ccc(O)cc12 [5-HT, 5-hydroxytryptamine]",,did not significantly affect the EC50,2.369±0.12,four-fold decrease in EC50,1.809±0.34,four-fold decrease in EC50,2.959±0.39,four-fold decrease in EC50,2.159±0.35,2.609±0.39,2.169±0.68,2.519±0.15,1.929±0.08,~1500,8
